Numbers after ± are expanded uncertainties.
Assays:
[1] = xn = mol fraction of the nth substance listed; details: 298.15 K, 101 kPa, Liquid, Vibrating tube method
[2] = excess molar enthalpy (molar enthalpy of mixing); xn = mol fraction of the nth substance listed; details: 298.15 K, 101 kPa, Liquid, Calvet calorimetry

BrCCCCCCBr [1,6-dibromohexane] + CCCCOC(=O)CC
mass density ([1]; x2 = 0.0686): 1552.3 ± 0.73 kg/m3
mass density ([1]; x2 = 0.1212): 1514.66 ± 0.69 kg/m3
mass density ([1]; x2 = 0.1829): 1470.4 ± 0.65 kg/m3
mass density ([1]; x2 = 0.2418): 1427.98 ± 0.61 kg/m3
mass density ([1]; x2 = 0.2995): 1386.24 ± 0.57 kg/m3
mass density ([1]; x2 = 0.4152): 1302.26 ± 0.49 kg/m3
mass density ([1]; x2 = 0.4752): 1258.56 ± 0.45 kg/m3
mass density ([1]; x2 = 0.5954): 1170.51 ± 0.38 kg/m3
mass density ([1]; x2 = 0.6527): 1128.4 ± 0.34 kg/m3
mass density ([1]; x2 = 0.7123): 1084.48 ± 0.31 kg/m3
mass density ([1]; x2 = 0.7652): 1045.44 ± 0.28 kg/m3
mass density ([1]; x2 = 0.8249): 1001.25 ± 0.24 kg/m3
mass density ([1]; x2 = 0.8847): 956.84 ± 0.24 kg/m3
mass density ([1]; x2 = 0.9365): 918.31 ± 0.24 kg/m3
excess molar enthalpy ([2]; x2 = 0.0731): 0.00669 ± 0.000239 kcal/mol
excess molar enthalpy ([2]; x2 = 0.1582): 0.0117 ± 0.000478 kcal/mol
excess molar enthalpy ([2]; x2 = 0.2418): 0.0136 ± 0.000478 kcal/mol
excess molar enthalpy ([2]; x2 = 0.3151): 0.012 ± 0.000478 kcal/mol
excess molar enthalpy ([2]; x2 = 0.3861): 0.00621 ± 0.000239 kcal/mol
excess molar enthalpy ([2]; x2 = 0.4485): 0.000239 ± 0.000239 kcal/mol
excess molar enthalpy ([2]; x2 = 0.5064): -0.00669 ± 0.000239 kcal/mol
excess molar enthalpy ([2]; x2 = 0.5318): -0.0105 ± 0.000239 kcal/mol
excess molar enthalpy ([2]; x2 = 0.5419): -0.0108 ± 0.000239 kcal/mol
excess molar enthalpy ([2]; x2 = 0.596): -0.0143 ± 0.000478 kcal/mol
excess molar enthalpy ([2]; x2 = 0.6658): 0.016 ± 0.000478 kcal/mol
excess molar enthalpy ([2]; x2 = 0.7456): 0.0158 ± 0.000478 kcal/mol
excess molar enthalpy ([2]; x2 = 0.834): 0.0127 ± 0.000478 kcal/mol
excess molar enthalpy ([2]; x2 = 0.9306): 0.00526 ± 0.000239 kcal/mol

BrCCBr [1,2-dibromoethane] + CCCCOC(C)=O
excess molar enthalpy ([2]; x2 = 0.0399): -0.000239 ± 0.000239 kcal/mol
excess molar enthalpy ([2]; x2 = 0.0964): -0.000717 ± 0.000239 kcal/mol
excess molar enthalpy ([2]; x2 = 0.1625): -0.00382 ± 0.000239 kcal/mol
excess molar enthalpy ([2]; x2 = 0.2339): -0.0103 ± 0.000239 kcal/mol
excess molar enthalpy ([2]; x2 = 0.3039): -0.0174 ± 0.000478 kcal/mol
excess molar enthalpy ([2]; x2 = 0.3717): -0.0246 ± 0.000717 kcal/mol
excess molar enthalpy ([2]; x2 = 0.4237): -0.0308 ± 0.000717 kcal/mol
excess molar enthalpy ([2]; x2 = 0.4749): -0.0351 ± 0.000717 kcal/mol
excess molar enthalpy ([2]; x2 = 0.5228): -0.0363 ± 0.000956 kcal/mol
excess molar enthalpy ([2]; x2 = 0.5985): -0.0366 ± 0.000956 kcal/mol
excess molar enthalpy ([2]; x2 = 0.6854): -0.0332 ± 0.000717 kcal/mol
excess molar enthalpy ([2]; x2 = 0.7854): -0.0277 ± 0.000717 kcal/mol
excess molar enthalpy ([2]; x2 = 0.8989): -0.0148 ± 0.000478 kcal/mol

BrCCCCCBr [1,5-dibromopentane] + CCCCOC(=O)CC
excess molar enthalpy ([2]; x2 = 0.0697): 0.00741 ± 0.000239 kcal/mol
excess molar enthalpy ([2]; x2 = 0.1544): 0.012 ± 0.000478 kcal/mol
excess molar enthalpy ([2]; x2 = 0.248): 0.0124 ± 0.000478 kcal/mol
excess molar enthalpy ([2]; x2 = 0.3363): 0.00884 ± 0.000239 kcal/mol
excess molar enthalpy ([2]; x2 = 0.4134): 0.00263 ± 0.000239 kcal/mol
excess molar enthalpy ([2]; x2 = 0.4801): -0.00526 ± 0.000239 kcal/mol
excess molar enthalpy ([2]; x2 = 0.4924): -0.00884 ± 0.000239 kcal/mol
excess molar enthalpy ([2]; x2 = 0.5371): -0.0131 ± 0.000478 kcal/mol
excess molar enthalpy ([2]; x2 = 0.5511): -0.0165 ± 0.000478 kcal/mol
excess molar enthalpy ([2]; x2 = 0.6257): -0.0206 ± 0.000478 kcal/mol
excess molar enthalpy ([2]; x2 = 0.7153): -0.021 ± 0.000478 kcal/mol
excess molar enthalpy ([2]; x2 = 0.8183): -0.016 ± 0.000478 kcal/mol
excess molar enthalpy ([2]; x2 = 0.9151): -0.00884 ± 0.000239 kcal/mol

CCCCOC(=O)CCC [butyl butanoate] + BrCCCBr
mass density ([1]; x1 = 0.079): 1834.63 ± 1 kg/m3
mass density ([1]; x1 = 0.1205): 1768.32 ± 0.96 kg/m3
mass density ([1]; x1 = 0.206): 1641.3 ± 0.83 kg/m3
mass density ([1]; x1 = 0.2513): 1578.66 ± 0.76 kg/m3
mass density ([1]; x1 = 0.3045): 1509.31 ± 0.69 kg/m3
mass density ([1]; x1 = 0.356): 1445.76 ± 0.63 kg/m3
mass density ([1]; x1 = 0.4085): 1384.26 ± 0.57 kg/m3
mass density ([1]; x1 = 0.4703): 1315.94 ± 0.51 kg/m3
mass density ([1]; x1 = 0.5404): 1243.38 ± 0.44 kg/m3
mass density ([1]; x1 = 0.5989): 1186.32 ± 0.39 kg/m3
mass density ([1]; x1 = 0.7409): 1059.86 ± 0.29 kg/m3
mass density ([1]; x1 = 0.8162): 998.93 ± 0.24 kg/m3
mass density ([1]; x1 = 0.8997): 935.58 ± 0.24 kg/m3
mass density ([1]; x1 = 0.9428): 904.65 ± 0.24 kg/m3
excess molar enthalpy ([2]; x1 = 0.0478): 0.0055 ± 0.000239 kcal/mol
excess molar enthalpy ([2]; x1 = 0.1102): 0.00932 ± 0.000239 kcal/mol
excess molar enthalpy ([2]; x1 = 0.1831): 0.0105 ± 0.000239 kcal/mol
excess molar enthalpy ([2]; x1 = 0.2568): 0.00765 ± 0.000239 kcal/mol
excess molar enthalpy ([2]; x1 = 0.3257): 0.000956 ± 0.000239 kcal/mol
excess molar enthalpy ([2]; x1 = 0.3879): -0.00789 ± 0.000239 kcal/mol
excess molar enthalpy ([2]; x1 = 0.4528): -0.0163 ± 0.000478 kcal/mol
excess molar enthalpy ([2]; x1 = 0.5333): -0.0217 ± 0.000478 kcal/mol
excess molar enthalpy ([2]; x1 = 0.6324): -0.0246 ± 0.000717 kcal/mol
excess molar enthalpy ([2]; x1 = 0.7588): -0.0225 ± 0.000478 kcal/mol
excess molar enthalpy ([2]; x1 = 0.8755): -0.0158 ± 0.000478 kcal/mol

BrCCCBr [1,3-dibromopropane] + CCCCOC(C)=O
excess molar enthalpy ([2]; x2 = 0.0548): 0.00191 ± 0.000239 kcal/mol
excess molar enthalpy ([2]; x2 = 0.1295): 0.00287 ± 0.000239 kcal/mol
excess molar enthalpy ([2]; x2 = 0.2133): 0.00191 ± 0.000239 kcal/mol
excess molar enthalpy ([2]; x2 = 0.2909): -0.00167 ± 0.000239 kcal/mol
excess molar enthalpy ([2]; x2 = 0.3612): -0.0086 ± 0.000239 kcal/mol
excess molar enthalpy ([2]; x2 = 0.424): -0.017 ± 0.000478 kcal/mol
excess molar enthalpy ([2]; x2 = 0.4792): -0.0251 ± 0.000717 kcal/mol
excess molar enthalpy ([2]; x2 = 0.5321): -0.0289 ± 0.000717 kcal/mol
excess molar enthalpy ([2]; x2 = 0.6141): -0.0296 ± 0.000717 kcal/mol
excess molar enthalpy ([2]; x2 = 0.7077): -0.0277 ± 0.000717 kcal/mol
excess molar enthalpy ([2]; x2 = 0.808): -0.0217 ± 0.000478 kcal/mol
excess molar enthalpy ([2]; x2 = 0.9143): -0.0131 ± 0.000478 kcal/mol

BrCCCCBr [1,4-dibromobutane] + CCCCOC(C)=O
mass density ([1]; x1 = 0.06): 1754.15 ± 0.94 kg/m3
mass density ([1]; x1 = 0.1131): 1699.34 ± 0.88 kg/m3
mass density ([1]; x1 = 0.1633): 1648.18 ± 0.83 kg/m3
mass density ([1]; x1 = 0.2229): 1588.24 ± 0.77 kg/m3
mass density ([1]; x1 = 0.2748): 1536.73 ± 0.72 kg/m3
mass density ([1]; x1 = 0.3886): 1426 ± 0.61 kg/m3
mass density ([1]; x1 = 0.4426): 1374.38 ± 0.56 kg/m3
mass density ([1]; x1 = 0.5): 1320.28 ± 0.51 kg/m3
mass density ([1]; x1 = 0.6216): 1207.87 ± 0.41 kg/m3
mass density ([1]; x1 = 0.6806): 1154.38 ± 0.37 kg/m3
mass density ([1]; x1 = 0.8076): 1041.44 ± 0.28 kg/m3
mass density ([1]; x1 = 0.8633): 992.97 ± 0.25 kg/m3
mass density ([1]; x1 = 0.9298): 935.67 ± 0.25 kg/m3
excess molar enthalpy ([2]; x2 = 0.0576): 0.00335 ± 0.000239 kcal/mol
excess molar enthalpy ([2]; x2 = 0.135): 0.00574 ± 0.000239 kcal/mol
excess molar enthalpy ([2]; x2 = 0.2211): 0.00621 ± 0.000239 kcal/mol
excess molar enthalpy ([2]; x2 = 0.3056): 0.00359 ± 0.000239 kcal/mol
excess molar enthalpy ([2]; x2 = 0.3729): -0.000956 ± 0.000239 kcal/mol
excess molar enthalpy ([2]; x2 = 0.4291): -0.00621 ± 0.000239 kcal/mol
excess molar enthalpy ([2]; x2 = 0.4798): -0.0124 ± 0.000478 kcal/mol
excess molar enthalpy ([2]; x2 = 0.4866): -0.0158 ± 0.000478 kcal/mol
excess molar enthalpy ([2]; x2 = 0.5277): -0.0186 ± 0.000478 kcal/mol
excess molar enthalpy ([2]; x2 = 0.5406): -0.021 ± 0.000478 kcal/mol
excess molar enthalpy ([2]; x2 = 0.603): -0.0234 ± 0.000478 kcal/mol
excess molar enthalpy ([2]; x2 = 0.6715): -0.0237 ± 0.000478 kcal/mol
excess molar enthalpy ([2]; x2 = 0.7464): -0.0222 ± 0.000478 kcal/mol
excess molar enthalpy ([2]; x2 = 0.8416): -0.0155 ± 0.000478 kcal/mol
excess molar enthalpy ([2]; x2 = 0.9307): -0.00717 ± 0.000239 kcal/mol

Reference: the NIST ThermoML archive (doi:10.1016/j.jct.2009.05.006)
